In US8470883B2, “Preservative system and composition based on glycinate and hydroxyethyl sulfonate salt combination” (Conopco, Inc., priority 2010, dated 2013):

Tested on: Pseudomonas aeruginosa ATCC 9027
Test: Challenge Test for the Evaluation of Preservative Capacity of Liquid Detergent and Personal Products
Format: cell-based
Details: aqueous formula, each active component 5%, pH 7.6
Experimental: Experiments were conducted to evaluate antimicrobial activity against Pseudomonas aeruginosa of aqueous formulas containing sodium hydroxyethyl sulfonate, sodium cocoyl glycinate and combinations of these two materials. Samples were prepared at room temperature by mixing together sodium cocoyl glycinate and/or sodium hydroxyethyl sulfonate and water. The pH was adjusted by addition of aqueous hydrochloric acid to reach a 7.6 value. Amounts of each of the active components was 5%. Challenge Test for the Evaluation of Preservative Capacity of Liquid Detergent and Personal Products Pseudomonas aeruginosa ATCC 9027 obtained from American Type Culture Collection, Manassas, Va. 20108. 20 grams of product were inoculated with 0.2 ml of the microorganism at a level of 1.06E+07 or Log 7. A single inoculation was performed. At 2 day, 7 day, 14 day and 21 day time points after inoculation a 1 gram sample was aseptically removed into a neutralizing fluid (TAT Broth) and plated using Letheen Agar. The plates were incubated at 30° C. for 7 days. At the end of the incubation time the plates were removed and examined for microbial growth. The microorganisms recovered were converted into Log10 and compared to initial inoculum count which then determined the Log Reduction. Logarithmic functions are the inverse of exponential functions. Log reduction was determined by the initial inoculum count minus the counts at each sampling time point.

[1] = 2 day after single inoculation (1.06E+07, Log 7)
[2] = 7 day after single inoculation (1.06E+07, Log 7)
[3] = 14 day after single inoculation (1.06E+07, Log 7)
[4] = 21 day after single inoculation (1.06E+07, Log 7)

Compound	Log Reduction Value [1]	Log Reduction Value [2]	Log Reduction Value [3]	Log Reduction Value [4]
O=S(=O)([O-])CCO.[Na+] [Sodium Hydroxyethyl Sulfonate, sodium hydroxyethyl sulfonate]	1.1	0.9	0.8	0.5
sodium cocoyl glycinate	1.1	1.1	0.8	0.2
